Measurements taken from patent US10800752B2, “Substituted naphtho[2,3-b]furans as water-soluble prodrugs for preventing and/or treating cancer” (BOSTON BIOMEDICAL, INC., priority 2015, dated 2020).
Where a name gives a salt, the structure may show the parent alone. One block for each compound: values may come before it.

How the values were obtained:
[1] = Pharmacokinetics test, intravenous administration; details: intravenously administered to mice
Method: For water-soluble prodrugs described in the EXAMPLES, the concentration of 2-acetylnaphtho[2,3-b]furan-4,9-dione (Activated form 1) in plasma was measured. Animal species, an administration method, a method of making standard solutions, and a method of measuring the concentration in plasma are as described below.
Animal: Seven-week-aged male CD1 (ICR) mice were used as an experimental animal.
Administration method: A test substance was weighed, and then dissolved in 50 mmol/L glycine buffered saline (pH 2.0) to produce an administration solution. The body weight of a mouse was measured, and the prepared administration solution was intravenously administered.
Blood collecting method: Heparin was added to a blood-collecting vessel, and blood was collected from a mouse. To the obtained blood, 46% of Citric acid was added in 1% volume. It was then centrifuged to obtain plasma. To the collected plasma, 1 mol/L HCl was added in 10% volume to produce a plasma sample. A sample obtained by adding 10% volume of 1 mol/L HCl to blank plasma was used as a blank sample.
Making of a standard solution: One mg of a test sample was weighed, and dissolved in 10 mL of acetonitrile using a measuring flask to make a standard solution of 100 ug/mL.
Measurement of the concentration in plasma: One hundred ug/mL of the standard solution was diluted in 50% acetonitrile solution to make calibration curve samples of target concentrations. Twenty uL of a blank sample was added to 18 uL of the calibration curve sample to make a plasma calibration curve sample. Eighteen uL of 50% acetonitrile solution was added to 20 uL of the administered plasma sample to make a sample for plasma analysis. One hundred uL of acetonitrile (containing 1% volume of 10 mol/L HCl) containing an internal standard was added to the plasma calibration curve sample and the sample for plasma analysis, respectively. It should be noted that phenytoin was used as the internal standard and its concentration was prepared in 100 nmol/L. 10 uL of each sample was analyzed with LC-MS. A calibration curve was made from a value (peak ratio) of the peak area of a test substance in MS divided by the peak area of the internal standard, and the concentrations of plasma calibration curve samples. The concentration in a sample was calculated from the peak ratio of each sample and the calibration curve.

Solubility test = details: pH 2, aqueous buffer, thermodynamic from solid
Method: A water-soluble prodrug was added into 50 mmol/L glycine buffer solution (pH 2.0). After shaking at room temperature for 24 hours, the mixture was filtered through a membrane filter, and then the filtrate was measured with HPLC.
The measurement condition of HPLC is as described below. HPLC condition column: Acquity UPLC BEH C18, 1.7 um, 50×2.1 mm

[2] = Evaluation of a conversion rate to 2-acetylnaphtho[2,3-b]furan-4,9-dione in pH 7.4 phosphate buffer solution; format: physicochemical; details: Phosphate buffer solution (pH 7.4), 1 umol/L, 37° C., incubation time 120 min
How it was run: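 Compounds at 1 umol/L were incubated at 37° C in human plasma, CD1 mouse plasma or pH 7.4 phosphate buffer, sampled up to 120 minutes, acid/acetonitrile-deproteinised and analysed by LC-MS (ESI positive). Conversion (%) derived from the peak area ratio of the active form to phenytoin internal standard.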

[3] = format: in vivo, CD1 (ICR) mice; details: orally administered to mice
Text: It was then centrifuged to obtain plasma.

[4] = Evaluation of a conversion rate to 2-acetylnaphtho[2,3-b]furan-4,9-dione in CD1 mouse plasma; format: in vitro ADME; details: CD1, mouse, 120 min, 1 umol/L
Method: For test compounds, the decrease rate of the test compounds and the conversion rate thereof to 2-acetylnaphtho[2,3-b]furan-4,9-dione in human plasma, CD1 mouse plasma, and pH 7.4 phosphate buffer solution were measured.
Test compounds were incubated at the concentration of 1 umol/L in human plasma (cat. no. 12250210, COSMO BIO), CD1 mouse plasma (cat. no. AP3054, KAC), and phosphate buffer solution at 37° C., and removed at predetermined times (0, 5, 10, 30, 60, and 120 minutes). After protein-removing treatment was performed, they are analyzed with LC-MS. It should be noted that the protein-removing treatment used acetonitrile containing: 10% volume of 1 mol/L hydrochloric acid; 1% volume of 46% citric acid; and phenytoin as an internal standard.
The measurement condition of LC-MS is as described below. LC-MS condition column: Kinetex 2.6 u PFP 100 A 50×2.1 mm Column temperature: 40° C.
Mobile phase: A: 0.1% formic acid-containing water
• B: 0.1% formic acid-containing acetonitrile A/B(min): 95/5(0)→5/95(3)→5/95(4)→95/5(4.1)→95/5(6) Flow rate: 0.4 mL/min Detection: ESI (positive mode) Injection volume: 10 uL
Measurement values are calculated from the peak area ratio in LC-MS between an internal standard material, phenytoin and an active form, 2-acetylnaphtho[2,3-b]furan-4,9-dione, and are expressed in %.
In the same way as Example 6, the incubation time was set as 120 minutes later, and the conversion rate of each of various test compounds to 2-acetylnaphtho[2,3-b]furan-4,9-dione in human plasma, CD1 mouse plasma, and pH 7.4 phosphate buffer solution was measured. A series of the present compounds were confirmed to be converted to 2-acetylnaphtho[2,3-b]furan-4,9-dione in pH 7.4 phosphate buffer solution in addition to human plasma and CD1 mouse plasma. Therefore, a series of the test compounds of the present invention were confirmed to be converted to the activated form via a route other than an enzymatic conversion.

Solution stability test = format: physicochemical; details: for % Residual ratio: 25 umol/L
Method: For Example 6, Example 11, and Example 22, the stability in each pH was measured. Test compounds at a concentration of 25 umol/L in respective buffer solutions prepared at pH 2.0, 3.0, 5.0, 7.4, and 9.0 were allowed to stand at 25° C. After 0, 3, 6, 9, 12, and 24 hours, they were measured with HPLC.
The buffer solutions used at respective pHs are as described below. pH 2.0: 50 mmol/L glycine buffer solution pH 3.0: 50 mmol/L citrate buffer solution pH 5.0: 50 mmol/L citrate buffer solution pH 7.4: 50 mmol/L phosphate buffer solution pH 9.0: 50 mmol/L glycine buffer solution
The measurement condition of HPLC is as described below.
Column temperature: 40° C.
Mobile phase: A: 0.1% trifluoroacetic acid-containing water

[5] = Evaluation of a conversion rate to 2-acetylnaphtho[2,3-b]furan-4,9-dione in human plasma; format: in vitro ADME; details: human, 120 min, 1 umol/L
How it was run: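 Compounds at 1 umol/L incubated at 37° C in human plasma, CD1 mouse plasma or pH 7.4 phosphate buffer, sampled up to 120 minutes. After acidified acetonitrile protein removal, parent loss and conversion to 2-acetylnaphtho[2,3-b]furan-4,9-dione measured by LC-MS (ESI positive).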

SMILES: CC(=O)c1cc2c(OC(=O)NCCNCC(=O)O)c3ccccc3c(OC(=O)NCCNCC(=O)O)c2o1 [Example 4, 2,2′-((((((2-Acetylnaphtho[2,3-b]furan-4,9-diyl)bis(oxy))bis(carbonyl))bis(azanediyl))bis(ethane-2,1-diyl))bis(azanediyl))diacetic acid dihydrochloride]
production of 2-acetylnaphtho[2,3-b]furan-4,9-dione (Activated form 1) (in words) [1]: rapidly produced
solubility at 24 hours (Solubility test; Solubility in pH 2.0 buffer solution, 50 mmol/L glycine buffer solution (pH 2.0), room temperature, 24 hours shaking): > 5000 µg/mL
% Measurement value (conversion rate to 2-acetylnaphtho[2,3-b]furan-4,9-dione) ([2]; dihydrochloride): 53%
concentration of 2-acetylnaphtho[2,3-b]furan-4,9-dione (Activated form 1) observed (in words) [3]: high concentration

% Measurement value (conversion rate to 2-acetylnaphtho[2,3-b]furan-4,9-dione) [4]: 56%
solubility at 24 hours (Solubility test; glycine buffer solution): > 5000 µg/mL
% Measurement value (conversion rate to 2-acetylnaphtho[2,3-b]furan-4,9-dione) [2]: 22%
stability in solution (in words) (Solution stability test; pH 2.0, 25° C.): sufficient stability
% Residual ratio (Solution stability test; pH 2.0, 25° C., 0 hr): 100%
% Residual ratio (Solution stability test; pH 2.0, 25° C., 3 hr): 97.0%
% Residual ratio (Solution stability test; pH 2.0, 25° C., 6 hr): 96.3%
% Residual ratio (Solution stability test; pH 2.0, 25° C., 9 hr): 97.8%
% Residual ratio (Solution stability test; pH 2.0, 25° C., 12 hr): 97.1%
% Residual ratio (Solution stability test; pH 2.0, 25° C., 24 hr): 91.8%
stability in solution (in words) (Solution stability test; pH 3.0, 25° C.): sufficient stability
% Residual ratio (Solution stability test; pH 3.0, 25° C., 0 hr): 100%
% Residual ratio (Solution stability test; pH 3.0, 25° C., 3 hr): 98.6%
% Residual ratio (Solution stability test; pH 3.0, 25° C., 6 hr): 97.8%
% Residual ratio (Solution stability test; pH 3.0, 25° C., 9 hr): 96.9%
% Residual ratio (Solution stability test; pH 3.0, 25° C., 12 hr): 96.0%
% Residual ratio (Solution stability test; pH 3.0, 25° C., 24 hr): 92.6%
% Residual ratio (Solution stability test; pH 5.0, 25° C., 0 hr): 100%
% Residual ratio (Solution stability test; pH 5.0, 25° C., 3 hr): 81.2%
% Residual ratio (Solution stability test; pH 5.0, 25° C., 6 hr): 69.4%
% Residual ratio (Solution stability test; pH 5.0, 25° C., 9 hr): 58.8%
% Residual ratio (Solution stability test; pH 5.0, 25° C., 12 hr): 49.7%
% Residual ratio (Solution stability test; pH 5.0, 25° C., 24 hr): 24.5%
% Residual ratio (Solution stability test; pH 7.4, 25° C., 0 hr): 100%
% Residual ratio (Solution stability test; pH 7.4, 25° C., 3 hr): 0%
% Residual ratio (Solution stability test; pH 7.4, 25° C., 6 hr): 0%
% Residual ratio (Solution stability test; pH 7.4, 25° C., 9 hr): 0%
% Residual ratio (Solution stability test; pH 7.4, 25° C., 12 hr): 0%
% Residual ratio (Solution stability test; pH 7.4, 25° C., 24 hr): 0%
% Residual ratio (Solution stability test; pH 9.0, 25° C., 0 hr): 100%
% Residual ratio (Solution stability test; pH 9.0, 25° C., 3 hr): 0%
% Residual ratio (Solution stability test; pH 9.0, 25° C., 6 hr): 0%
% Residual ratio (Solution stability test; pH 9.0, 25° C., 9 hr): 0%
% Residual ratio (Solution stability test; pH 9.0, 25° C., 12 hr): 0%
% Residual ratio (Solution stability test; pH 9.0, 25° C., 24 hr): 0%
% Measurement value (conversion rate to 2-acetylnaphtho[2,3-b]furan-4,9-dione) [5]: 37%
SMILES: CC(=O)c1cc2c(OC(=O)OCCC[C@H](N)C(=O)O)c3ccccc3c(OC(=O)OCCC[C@H](N)C(=O)O)c2o1 [Example 22]

production of 2-acetylnaphtho[2,3-b]furan-4,9-dione (Activated form 1) (in words) [1]: rapidly produced
solubility at 24 hours (Solubility test; glycine buffer solution): > 5000 µg/mL
SMILES: CC(=O)c1cc2c(OC(=O)OCCCCNCC(=O)O)c3ccccc3c(OC(=O)OCCCCNCC(=O)O)c2o1 [Example 23, 2,2′-((((((2-Acetylnaphtho[2,3-b]furan-4,9-diyl)bis(oxy)bis(carbonyl))bis(oxy))bis(butane-4,1-diyl))bis(azanediyl)diacetic acid dihydrochloride]

SMILES: CC(=O)c1cc2c(OC(=O)NCCNCCC(=O)O)c3ccccc3c(OC(=O)NCCNCCC(=O)O)c2o1 [Example 5, 3,3′-((((((2-Acetylnaphtho[2,3-b]furan-4,9-diyl)bis(oxy))bis(carbonyl))bis-(azanediyl))bis(ethane-2,1-diyl))bis(azanediyl))dipropionic acid dihydrochloride]
production of 2-acetylnaphtho[2,3-b]furan-4,9-dione (Activated form 1) (in words) [1]: rapidly produced
% Measurement value (conversion rate to 2-acetylnaphtho[2,3-b]furan-4,9-dione) ([2]; dihydrochloride): 70%
concentration of 2-acetylnaphtho[2,3-b]furan-4,9-dione (Activated form 1) observed (in words) [3]: high concentration
